In US20240109930A1, “TRIAZOLYL-METHYL SUBSTITUTED ALPHA-D-GALACTOPYRANOSIDE DERIVATIVES” (Idorsia Pharmaceuticals Ltd, priority 2021, published 2024):

Key:
[1] = biological target: human Gal-3 (hGal-3) (Homo sapiens (Human), UniProt P17931); assay: Competitive binding assay: biotinylated hGal-3 binding to microplate-adsorbed asialofetuin (ASF); details: IC50 values from several measurements given as geomean
Method in brief: (§1)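 Biotinylated hGal-3 or hGal-1 (preferably cysteine-free Cys→Ser mutant), 300–1000 ng/mL, competes with compound for ASF-coated wells for 3 h at 4 °C. Bound lectin detected with streptavidin-peroxidase (80 ng/mL, 1 h, 4 °C) and ABTS by absorbance; IC50 reported as geomean of several runs.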

[2] = biological target: human Gal-1 (hGal-1) (Homo sapiens, UniProt P09382, C131S/C17S/C43S/C61S/C89S); assay: Competitive binding assay: biotinylated hGal-1 binding to microplate-adsorbed asialofetuin (ASF); details: IC50 values from several measurements given as geomean
Method in brief: as §1

Sequence of human Gal-3 (hGal-3) (P17931 whole entry): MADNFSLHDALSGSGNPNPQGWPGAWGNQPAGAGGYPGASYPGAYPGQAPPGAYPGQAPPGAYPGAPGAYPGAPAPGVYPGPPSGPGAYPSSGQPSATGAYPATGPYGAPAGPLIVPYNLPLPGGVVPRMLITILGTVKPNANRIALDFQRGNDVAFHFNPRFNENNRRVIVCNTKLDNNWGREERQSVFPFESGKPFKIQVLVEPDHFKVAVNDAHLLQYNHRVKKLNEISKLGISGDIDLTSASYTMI

SMILES	IC50 [1] [nM]	IC50 [2] [nM]
CO[C@@H]1[C@@H](n2cc(-c3ccc(Cl)c(F)c3F)nn2)[C@@H](O)[C@@H](CO)O[C@@H]1Cn1cc(C2CC3(C2)CC(F)(F)C3)nn1 [Ex 2.2.84.]	240	11000
CO[C@@H]1[C@@H](n2cc(-c3ccc(Cl)c(F)c3F)nn2)[C@@H](O)[C@@H](CO)O[C@@H]1Cn1cc(C2(C)CC2)nn1 [Ex 2.2.23.]	60	1710
CO[C@@H]1[C@@H](n2cc(-c3ccc(Cl)c(F)c3F)nn2)[C@@H](O)[C@@H](CO)O[C@@H]1Cc1cn([C@H]2CCCC2(F)F)nn1 [Example 2.1.64.B, (2R,3R,4S,5R,6R)-4-(4-(4-chloro-2,3-difluorophenyl)-1H-1,2,3-triazol-1-yl)-6-((1-((S)-2,2-difluorocyclopentyl)-1H-1,2,3-triazol-4-yl)methyl)-2-(hydroxymethyl)-5-methoxytetrahydro-2H-pyran-3-ol]	30	2340
CO[C@@H]1[C@@H](n2cc(-c3ccc(Cl)c(F)c3F)nn2)[C@@H](O)[C@@H](CO)O[C@@H]1Cc1cn(C2(C(F)(F)F)COC2)nn1 [Ex 2.1.58., (2R,3R,4S,5R,6R)-4-(4-(4-chloro-2,3-difluorophenyl)-1H-1,2,3-triazol-1-yl)-2-(hydroxymethyl)-5-methoxy-6-((1-(3-(trifluoromethyl)oxetan-3-yl)-1H-1,2,3-triazol-4-yl)methyl)tetrahydro-2H-pyran-3-ol [1-(1,2,3-tri-deoxy-2-methoxy-3-[4-(4-chloro-2,3-difluorophenyl)-1H-1,2,3-triazol-1-yl]-α-D-galacto-pyranose)-1-(1-(3-trifluoromethyl-3-oxetanyl)-1H-triazol-4-yl)-methane]]	20	470
CO[C@@H]1[C@@H](n2cc(-c3ccc(Br)c(F)c3F)nn2)[C@@H](O)[C@@H](CO)O[C@@H]1Cn1cc(C2CCCC2)nn1 [Ex 4.2.32.]	60	2680
CO[C@@H]1[C@@H](n2cc(-c3ccc(Cl)c(F)c3F)nn2)[C@@H](O)[C@@H](CO)O[C@@H]1Cc1cn(C2(CO)CCC2)nn1 [Ex 2.1.11.]	50	2510
CO[C@@H]1[C@@H](n2cc(-c3ccc(Cl)c(F)c3F)nn2)[C@@H](O)[C@@H](CO)O[C@@H]1Cc1cn(C2(C(F)F)CC2)nn1 [Ex 2.1.51., (2R,3R,4S,5R,6R)-4-(4-(4-chloro-2,3-difluorophenyl)-1H-1,2,3-triazol-1-yl)-6-((1-(1-(difluoromethyl)cyclopropyl)-1H-1,2,3-triazol-4-yl)methyl)-2-(hydroxymethyl)-5-methoxytetrahydro-2H-pyran-3-ol]	20	830
CO[C@@H]1[C@@H](n2cc(-c3ccc(F)c(F)c3F)nn2)[C@@H](O)[C@@H](CO)O[C@@H]1Cc1cn(C2(C(F)F)COC2)nn1 [Ex 3.1.53.]	20	130
CO[C@@H]1[C@@H](n2cc(-c3ccc(Cl)c(F)c3F)nn2)[C@@H](O)[C@@H](CO)O[C@@H]1Cc1cn(C2(C)CCOC2)nn1 (stereo partly shown) [Ex 2.1.42.]	40	1830
CO[C@@H]1[C@@H](n2cc(-c3ccc(C)c(F)c3F)nn2)[C@@H](O)[C@@H](CO)O[C@@H]1Cc1cn([C@]2(C)C[C@@H](O)C2)nn1 [Ex 1.1.27.]	30	1410
CO[C@@H]1[C@@H](n2cc(-c3ccc(Cl)c(F)c3F)nn2)[C@@H](O)[C@@H](CO)O[C@@H]1Cc1cn([C@@H]2CCOC[C@H]2F)nn1 [Example 2.1.66.C, (2R,3R,4S,5R,6R)-4-(4-(4-chloro-2,3-difluorophenyl)-1H-1,2,3-triazol-1-yl)-6-((1-((3S,4R)-3-fluorotetrahydro-2H-pyran-4-yl)-1H-1,2,3-triazol-4-yl)methyl)-2-(hydroxymethyl)-5-methoxytetrahydro-2H-pyran-3-ol]	20	950
CO[C@@H]1[C@@H](n2cc(-c3ccc(C)c(F)c3F)nn2)[C@@H](O)[C@@H](CO)O[C@@H]1Cc1cn(C2(CCO)COC2)nn1 [Ex 1.1.22.]	40	690
CO[C@@H]1[C@@H](n2cc(-c3ccc(Cl)c(F)c3F)nn2)[C@@H](O)[C@@H](CO)O[C@@H]1Cc1cn(C2(C(F)F)CCC2)nn1 [Ex 2.1.43.]	20	610
CO[C@@H]1[C@@H](n2cc(-c3ccc(F)c(F)c3F)nn2)[C@@H](O)[C@@H](CO)O[C@@H]1Cn1cc(C2(O)CCOCC2)nn1 [Ex 3.2.35.]	60	860
CO[C@@H]1[C@@H](n2cc(-c3ccc(Cl)c(F)c3F)nn2)[C@@H](O)[C@@H](CO)O[C@@H]1Cc1cn(C2(CF)CCC2)nn1 [Ex 2.1.40.]	50	1630
CO[C@@H]1[C@@H](n2cc(-c3ccc(Cl)c(F)c3F)nn2)[C@@H](O)[C@@H](CO)O[C@@H]1Cc1cn(C2CC3(COC3)C2)nn1 [Ex 2.1.16.]	90	5930
CO[C@@H]1[C@@H](n2cc(-c3ccc(C)c(F)c3F)nn2)[C@@H](O)[C@@H](CO)O[C@@H]1Cc1cn(C2CC2C(C)C)nn1 (stereo partly shown) [Ex 1.1.17.]	110	5000
CO[C@@H]1[C@@H](n2cc(-c3ccc(Cl)c(F)c3F)nn2)[C@@H](O)[C@@H](CO)O[C@@H]1Cc1cn([C@@]2(C(F)(F)F)C[C@H]3C[C@H]3C2)nn1 [Ex 2.1.69.]	40	470

SMILES	IC50 [1] [nM]	IC50 [2] [nM]
CO[C@@H]1[C@@H](n2cc(-c3ccc(C)c(F)c3F)nn2)[C@@H](O)[C@@H](CO)O[C@@H]1Cn1cc(C2(O)CCC2)nn1 [Ex 1.2.31.]	60	3760
CO[C@@H]1[C@@H](n2cc(-c3ccc(F)c(F)c3F)nn2)[C@@H](O)[C@@H](CO)O[C@@H]1Cc1cn(C2CC3(CC3)C2)nn1 [Ex 3.1.26.]	70	760
CO[C@@H]1[C@@H](n2cc(-c3ccc(Cl)c(F)c3F)nn2)[C@@H](O)[C@@H](CO)O[C@@H]1Cn1cc(C2(CO)CC2)nn1 [Ex 2.2.4.]	50	1480
CO[C@@H]1[C@@H](n2cc(-c3ccc(Br)c(F)c3F)nn2)[C@@H](O)[C@@H](CO)O[C@@H]1Cc1cn(C2CCC2(F)F)nn1 (stereo partly drawn) [Example 4.1.63.AB, (2R,3R,4S,5R,6R)-4-(4-(4-bromo-2,3-difluorophenyl)-1H-1,2,3-triazol-1-yl)-6-((1-(2,2-difluorocyclobutyl)-1H-1,2,3-triazol-4-yl)methyl)-2-(hydroxymethyl)-5-methoxytetrahydro-2H-pyran-3-ol]	70	3190
CO[C@@H]1[C@@H](n2cc(-c3ccc(Br)c(F)c3F)nn2)[C@@H](O)[C@@H](CO)O[C@@H]1Cn1cc(C2(CO)CC2)nn1 [Ex 4.2.4.]	70	4640
CO[C@@H]1[C@@H](n2cc(-c3ccc(Br)c(F)c3F)nn2)[C@@H](O)[C@@H](CO)O[C@@H]1Cc1cn([C@H]2CCC[C@@H]2O)nn1 [Ex 4.1.3.]	40	4700
CO[C@@H]1[C@@H](n2cc(-c3ccc(C#N)c(F)c3F)nn2)[C@@H](O)[C@@H](CO)O[C@@H]1Cc1cn(C2(C(F)(F)F)COC2)nn1 [Ex 5.1.58.]	70	1910
CO[C@@H]1[C@@H](n2cc(-c3ccc(Cl)c(F)c3F)nn2)[C@@H](O)[C@@H](CO)O[C@@H]1Cc1cn(C2CC(F)C2)nn1 (single isomer, unassigned) [Example 2.1.60.B]	40	1190
CO[C@@H]1[C@@H](n2cc(-c3ccc(F)c(F)c3F)nn2)[C@@H](O)[C@@H](CO)O[C@@H]1Cn1cc(C23CCC(NC(=O)OC(C)(C)C)(CC2)CC3)nn1 [Ex 3.2.37.]	40	1720
CO[C@@H]1[C@@H](n2cc(-c3ccc(Cl)c(F)c3F)nn2)[C@@H](O)[C@@H](CO)O[C@@H]1Cc1cn(C23CC(F)(C2)C3)nn1 [Ex 2.1.25.]	50	1960
CO[C@@H]1[C@@H](n2cc(-c3ccc(Br)c(F)c3F)nn2)[C@@H](O)[C@@H](CO)O[C@@H]1Cc1cn(C2(C(F)(F)F)CCC2)nn1 [Ex 4.1.55., (2R,3R,4S,5R,6R)-4-(4-(4-bromo-2,3-difluorophenyl)-1H-1,2,3-triazol-1-yl)-2-(hydroxymethyl)-5-methoxy-6-((1-(1-(trifluoromethyl)cyclobutyl)-1H-1,2,3-triazol-4-yl)methyl)tetrahydro-2H-pyran-3-ol]	30	1480
CO[C@@H]1[C@@H](n2cc(-c3ccc(Cl)c(F)c3F)nn2)[C@@H](O)[C@@H](CO)O[C@@H]1Cc1cn(C2[C@H]3CCC[C@@H]23)nn1 (stereo partly shown) [Ex 2.1.20.]	60	2060
CO[C@@H]1[C@@H](n2cc(-c3ccc(Br)c(F)c3F)nn2)[C@@H](O)[C@@H](CO)O[C@@H]1Cc1cn(C23COC(C2)C3)nn1 [Ex 4.1.44.]	40	3300
CO[C@@H]1[C@@H](n2cc(-c3ccc(Br)c(F)c3F)nn2)[C@@H](O)[C@@H](CO)O[C@@H]1Cc1cn(C23CC(C(F)(F)F)(C2)C3)nn1 [Ex 4.1.24.]	130	28400
CO[C@@H]1[C@@H](n2cc(-c3ccc(F)c(F)c3F)nn2)[C@@H](O)[C@@H](CO)O[C@@H]1Cn1cc(C2(O)CCCC2)nn1 [Ex 3.2.33.]	90	1250
CO[C@@H]1[C@@H](n2cc(-c3ccc(Cl)c(F)c3F)nn2)[C@@H](O)[C@@H](CO)O[C@@H]1Cc1cn(C2COCCC2(F)F)nn1 (single isomer, unassigned) [Example 2.1.73.B]	60	1200
CO[C@@H]1[C@@H](n2cc(-c3ccc(Cl)c(F)c3F)nn2)[C@@H](O)[C@@H](CO)O[C@@H]1Cc1cn([C@H]2CCCC[C@H]2F)nn1 [Example 2.1.81.B, (2R,3R,4S,5R,6R)-4-(4-(4-chloro-2,3-difluorophenyl)-1H-1,2,3-triazol-1-yl)-6-((1-((1S,2R)-2-fluorocyclohexyl)-1H-1,2,3-triazol-4-yl)methyl)-2-(hydroxymethyl)-5-methoxytetrahydro-2H-pyran-3-ol]	40	3050
